Experimental data published in patent publication US6054455A, “Method for treating or preventing chronic nonbacterial prostatitis and prostatodynia” (Merck & Co., Inc., priority 1999, dated 2000).

Tested on: patients suffering from chronic nonbacterial prostatitis
Test: Double-blind, placebo-controlled study of a substance P antagonist in patients suffering from chronic nonbacterial prostatitis
Type: in vivo, human
Conditions: 30 mg/day; assessed by immunological profile, rating scales, checklists and diminishment of the attendant disease state
Protocol: Double-Blind, Placebo-Controlled Study to Determine the Effect of a Substance P Antagonist on Patients Suffering from Chronic Nonbacterial Prostatitis Approximately twenty patients diagnosed as suffering from chronic nonbacterial prostatitis receive either the substance P receptor antagonist 2-(R)-(1-(R)-(3,5-bis(trifluoromethyl)-phenyl)-ethoxy)-3-(S)-(4-fluoro-phenyl)-4-(3-(5-oxo-1H,4H-1,2,4-triazolo)methyl-morpholine (30 mg/day) or a placebo. Each subject participates in 6 randomized test periods; in 3 of the test periods, each is given the substance P antagonist and in the other 3 test periods, is given a placebo. Efficacy of the test compound is assessed by reference to immunological profile, rating scales, checklists and diminishment of the attendant disease state.

Which “effect with respect to placebo in the treatment or prevention of chronic nonbacterial prostatitis” value does the source give for `C[C@@H](O[C@H]1OCCN(Cc2n[nH]c(=O)[nH]2)[C@H]1c1ccc(F)cc1)c1cc(C(F)(F)F)cc(C(F)(F)F)c1` [2-(R)-(1-(R)-(3,5-bis(trifluoromethyl)-phenyl)-ethoxy)-3-(S)-(4-fluoro-phenyl)-4-(3-(5-oxo-1H,4H-1,2,4-triazolo)methyl-morpholine] here?
The value was “positive effect with respect to placebo”.
